Reference: patent publication US20160237398A1, “METHODS OF MICROBIAL PRODUCTION OF EXCRETED PRODUCTS FROM METHANE AND RELATED BACTERIAL STRAINS” (UNIVERSITY OF WASHINGTON THROUGH ITS CENTER FOR …, priority 2013, published 2016)

Assays:
[1] = system: pyruvate kinase (pyk2, MALCv4_3080); test: Effect of effectors on activity of purified recombinant pyruvate kinase; assay type: biochemical, Methylomicrobium alcaliphilum 20Z; details: for Relative activity: control without effector = 100; for stimulation of enzyme activity: in the presence of the RuMP pathway intermediate
Procedure: Methanotrophic pyruvate kinase-purification and characterization.
(§1) Protein purification and characterization. Activities of key enzymes of the central metabolic pathways were measured as described. Pyruvate forming activity in cell-free extracts of M. alcaliphilus 20Z was also measured using Pyruvate Assay Kit (BioVision Inc. CA, USA). Recombinant pyruvate kinase PK-ubiqitin-His6 (“His6” disclosed as SEQ ID NO: 7) was obtained by cloning of the pyk2 gene (MALCv4_3080) in the vector pHUE and expressing in E. coli BL21 (DE3) cells growing in the presence of 0.5 mM IPTG for 5 hours at 37° C. PK-ubiqitin-His6 enzyme (“His6” disclosed as SEQ ID NO: 7) was purified by affinity chromatography on a Ni^2+-NTA column as described earlier.

[2] = system: 20ZER; test: Accumulation of extracellular metabolites by the culture with an inhibitor of the cyt bc complex; assay type: cell-based, Methylomicrobium alcaliphilum; details: 20ZER + antimycin, dO2 ^ 40%
Procedure: Cultivation and growth parameters. M. alcaliphilum 20Z cells were grown using a mineral salts medium in either closed vials (50 ml culture in 250 ml vials, with shaking at 200 rpm) or bioreactor cultures (fed-batch or chemostat; 1 L working volume in a two liter bench top BioFlo™ 110 modular bioreactors, New Brunswick Scientific, Edison, N.J.). Cells were grown at 28-30° C. Optical density of cell cultures was measured on a Beckman DU® 640B spectrophotometer in plastic 1.5 mL cuvettes with a 1 cm path length. Chemostat cultures maintained a steady-state optical density at 600 nm (OD600) of approximately 2.0±0.2. […] Samples of inflow and outflow gases were either collected daily in triplicates for gas analysis or were analyzed immediately every 15 minutes using a SRI 8610C™ Gas Chromatograph connected to a bioreactor unit. The rates of methane consumption and H2 production were determined by incubating cell samples (50 ml, OD600 between 2 and 4) in closed 250 ml vials for 12-60 h at 28° C. […]

[3] = target: pyruvate kinase 2 from M. alcaliphilum 20Z (Methylotuvimicrobium alcaliphilum, UniProt G4T2L7); assay type: biochemical, Methylomicrobium alcaliphilum 20Z; details: in the presence of 2.5 mM ribose-5-phosphate; read-out: S0.5 (used in place of Km, non Michaelis-Menten)
Chain of pyruvate kinase 2 from M. alcaliphilum 20Z (G4T2L7 entry or part of it): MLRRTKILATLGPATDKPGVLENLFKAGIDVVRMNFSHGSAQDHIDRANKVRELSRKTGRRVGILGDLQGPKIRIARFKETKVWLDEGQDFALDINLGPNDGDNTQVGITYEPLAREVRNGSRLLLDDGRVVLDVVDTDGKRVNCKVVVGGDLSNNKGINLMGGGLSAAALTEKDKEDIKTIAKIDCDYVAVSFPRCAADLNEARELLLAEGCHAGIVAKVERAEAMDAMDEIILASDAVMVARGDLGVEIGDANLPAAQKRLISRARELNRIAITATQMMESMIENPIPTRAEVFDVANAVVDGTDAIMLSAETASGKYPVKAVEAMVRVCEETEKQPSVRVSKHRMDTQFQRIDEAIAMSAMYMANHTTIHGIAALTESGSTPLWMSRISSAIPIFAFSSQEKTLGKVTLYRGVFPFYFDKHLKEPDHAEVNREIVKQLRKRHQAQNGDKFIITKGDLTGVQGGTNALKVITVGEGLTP
Procedure: as §1

Compound: O=C[C@H](O)[C@@H](O)[C@H](O)[C@H](O)COP(=O)(O)O [Glucose-6-phosphate]
- Relative activity ([1]; effector 5 mM): 2545%
- stimulation of enzyme activity [1]: 20 fold

Compound: O=P(O)(O)O [Pi, inorganic phosphate]
- effect on enzyme activity [1]: strongly inhibited
- Relative activity ([1]; effector 6 mM): 11%

Compound: O=P(O)(O)O[C@H]1O[C@H](CO)[C@@H](O)[C@H](O)[C@H]1O [Glucose-1-phosphate]
- Relative activity ([1]; effector 5 mM): 67%

Compound: N[C@@H](CO)C(=O)O [Serine]
- Relative activity ([1]; effector 1 mM): 133%

Compound: O=C[C@H](O)[C@H](O)COP(=O)(O)O [Erythrose-4-phosphate]
- Relative activity ([1]; effector 5 mM): 740%
- stimulation of enzyme activity [1]: 20 fold

Compound: O=C(O)[C@@H](CO)OP(=O)(O)O [2-phosphoglycerate]
- Relative activity ([1]; effector 2 mM): 75%

Compound: Nc1ncnc2c1ncn2[C@@H]1O[C@H](COP(=O)(O)OP(=O)(O)OP(=O)(O)O)[C@@H](O)[C@H]1O [ATP]
- effect on enzyme activity [1]: strongly inhibited
- Relative activity ([1]; effector 0.5 mM): 64%
- Relative activity ([1]; effector 1 mM): 32%
- Relative activity ([1]; effector 2 mM): 12%

Compound: O=C(COP(=O)(O)O)[C@@H](O)[C@H](O)[C@H](O)CO [Fructose-1-phosphate]
- Relative activity ([1]; effector 5 mM): 270%

Compound: antimycin A
- Accumulation of extracellular Acetate [2]: 3955 ± 230 μmol L^−1 g^−1 CDW
- Accumulation of extracellular Lactate [2]: 437 ± 30 μmol L^−1 g^−1 CDW

Compound: [Cl-].[Cl-].[Mg+2] [MgCl2]
- Km [3]: 1990 µM

Compound: O=C(O)CC(O)(CC(=O)O)C(=O)O [Citrate]
- Relative activity ([1]; effector 1 mM): 140%

Compound: Nc1ncnc2c1ncn2[C@@H]1O[C@H](COP(=O)(O)O)[C@@H](O)[C@H]1O [AMP]
- Relative activity ([1]; effector 2 mM): 126%

Compound: O=C(CO)[C@H](O)[C@H](O)COP(=O)(O)O [Ribulose-5-phosphate]
- Relative activity ([1]; effector 5 mM): 1890%
- stimulation of enzyme activity [1]: 20 fold

Compound: O=C[C@H](O)[C@H](O)[C@H](O)COP(=O)(O)O [Ribose-5-phosphate]
- inhibitory effect of ATP, PPi and Pi after addition of the activator [1]: completely abolished
- Relative activity ([1]; effector 5 mM): 2092%
- stimulation of enzyme activity [1]: 20 fold

Compound: O=C(COP(=O)(O)O)[C@@H](O)[C@H](O)[C@H](O)COP(=O)(O)O [Fructose-1,6-bisphosphate]
- Relative activity ([1]; effector 5 mM): 158%

Compound: O=P(O)(O)O[C@H]1O[C@H](CO)[C@@H](O)[C@H]1O [Ribose-1-phosphate]
- Relative activity ([1]; effector 5 mM): 92%

Compound: O=C(O)CC(O)C(=O)O (centres unmarked) [Malate]
- Relative activity ([1]; effector 1 mM): 82%

Compound: O=P(O)(O)OP(=O)(O)O [PPi, pyrophosphate]
- effect on enzyme activity [1]: strongly inhibited
- Relative activity ([1]; effector 2 mM): 14%

Compound: O=C(CO)[C@@H](O)[C@H](O)[C@H](O)COP(=O)(O)O [Fructose-6-phosphate]
- inhibitory effect of ATP, PPi and Pi after addition of the activator [1]: completely abolished
- Relative activity ([1]; effector 5 mM): 2518%
- stimulation of enzyme activity [1]: 20 fold
